{"source": "patent US20020164574A1", "about": "(priority 2001, published 2002)", "key": {"S. cerevisiae": {"test_system": "S. cerevisiae", "experiment": "YT MicroPlate carbon utilization test with fungicide treatment", "assay_type": "cell-based", "settings": "sub-inhibitory concentration of fungicide; 48 hours incubation; YT MicroPlate (Biolog); FIG. 2", "method": "The YT microplate test panel (Biolog, Inc.) is designed as a tool for identifying a broad range of yeasts by their carbon utilization patterns. Initial tests were performed with S. cerevisiae in these plates with and without the addition of various fungicides. Very simply, yeast cells are prepared as a water suspension as per the YT microplate instructions. Prior to loading the plates with cells, a fungicide or solvent control is added to the water suspension. The cells are immediately loaded onto a plate. The plates were incubated at 26° C. as per instructions, and OD490 and OD750 readings were obtained at various time points during incubation. The results of fungicide treated samples and controls are compared. Differences in well growth that is altered relative to the control is recorded and is presumed to relate to the mode-of-action of the chemical.\nA test in the YT microplate was set up using the sub-inhibitory concentration of three fungicides for which a putative MOA is known. Two fungicides, benomyl and fenpropimorph are predicted to have no effect on carbon utilization, but the third, fenpiclonil, is predicted to affect glucose uptake and utilization. The experiments were performed as described."}, "[1]": {"test_system": "M. grisea and S. cerevisiae", "assay_type": "cell-based", "settings": "OD600; rich liquid media; two fold dilution series; species not given"}}, "note": "“Also recorded” adds a separate entry of the source.", "data": [{"molecule": "CCCCNC(=O)n1c(NC(=O)OC)nc2ccccc21", "note": "[benomyl]", "values": [{"measurement": "utilization of carbon sources, fungicide treatment compared to controls", "setting": "S. cerevisiae", "result": "did not result in any significant differences from the controls"}]}, {"molecule": "N#Cc1c[nH]cc1-c1cccc(Cl)c1Cl", "note": "[fenpiclonil]", "values": [{"measurement": "utilization of carbon sources, fungicide treatment compared to controls", "setting": "S. cerevisiae", "result": "decreased utilization of glucose, raffinose and sucrose; also recorded: significant changes in the utilization of glucose, raffinose, and sucrose"}]}, {"molecule": "CC(Cc1ccc(C(C)(C)C)cc1)CN1C[C@@H](C)O[C@@H](C)C1", "note": "(some centres unmarked) [fenpropimorph]", "values": [{"measurement": "utilization of carbon sources, fungicide treatment compared to controls", "setting": "S. cerevisiae", "result": "did not result in any significant differences from the controls"}]}, {"molecule": "O=C1CCc2cccc3c2N1CC3", "note": "[pyroquilon]", "values": [{"measurement": "growth inhibition by spectrophotometric analysis", "setting": "[1]", "result": "no growth inhibition"}]}, {"molecule": "Cc1cccc2sc3nncn3c12", "note": "[tricyclazole]", "values": [{"measurement": "growth inhibition by spectrophotometric analysis", "setting": "[1]", "result": "no growth inhibition"}]}]}
